Key:
[1] = target: intracellular GCN2 (phosphorylation of the GCN2 substrate eIF2α) (Homo sapiens, UniProt Q9P2K8); assay: GCN2 cellular inhibition assay (AlphaScreen SureFire P-eIF2α Ser51, borrelidin-treated U2OS cells); format: cell-based; conditions: compounds of Formula II; biomarker assay, phosphorylated eIF2α Ser51 in borrelidin-treated U2OS cells
In short: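 U2OS, overnight attach; cpd 4-fold serial dil. from 40 μM final; borrelidin 10 μM, 1 h 37 °C/5% CO2; lyse; AlphaScreen P-eIF2α Ser51 (acceptor 2 h, donor overnight, RT, dark); % inhib. vs borrelidin-only.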

[2] = target: GCN2 kinase (Homo sapiens, UniProt Q9P2K8); assay: GCN2 enzyme inhibition assay (Transcreener ADP2 fluorescence polarization); format: biochemical; conditions: compounds of Formula II; 280 μM ATP, 4 nM GCN2 kinase
In short: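 Run at 25 °C in 25 mM Tris-HCl pH 7.5, 50 mM NaCl, 10 mM MgCl2, 1 mM DTT with 4 nM GCN2, 280 μM ATP and 200 μM (RS)7 peptide; compound (0–8 μM final) preincubated 10 min, reaction 1 h. ADP read by antibody/tracer FP; IC50 and Ki(app) from tight-binding fit.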

Sequence of GCN2 kinase (Q9P2K8 whole entry): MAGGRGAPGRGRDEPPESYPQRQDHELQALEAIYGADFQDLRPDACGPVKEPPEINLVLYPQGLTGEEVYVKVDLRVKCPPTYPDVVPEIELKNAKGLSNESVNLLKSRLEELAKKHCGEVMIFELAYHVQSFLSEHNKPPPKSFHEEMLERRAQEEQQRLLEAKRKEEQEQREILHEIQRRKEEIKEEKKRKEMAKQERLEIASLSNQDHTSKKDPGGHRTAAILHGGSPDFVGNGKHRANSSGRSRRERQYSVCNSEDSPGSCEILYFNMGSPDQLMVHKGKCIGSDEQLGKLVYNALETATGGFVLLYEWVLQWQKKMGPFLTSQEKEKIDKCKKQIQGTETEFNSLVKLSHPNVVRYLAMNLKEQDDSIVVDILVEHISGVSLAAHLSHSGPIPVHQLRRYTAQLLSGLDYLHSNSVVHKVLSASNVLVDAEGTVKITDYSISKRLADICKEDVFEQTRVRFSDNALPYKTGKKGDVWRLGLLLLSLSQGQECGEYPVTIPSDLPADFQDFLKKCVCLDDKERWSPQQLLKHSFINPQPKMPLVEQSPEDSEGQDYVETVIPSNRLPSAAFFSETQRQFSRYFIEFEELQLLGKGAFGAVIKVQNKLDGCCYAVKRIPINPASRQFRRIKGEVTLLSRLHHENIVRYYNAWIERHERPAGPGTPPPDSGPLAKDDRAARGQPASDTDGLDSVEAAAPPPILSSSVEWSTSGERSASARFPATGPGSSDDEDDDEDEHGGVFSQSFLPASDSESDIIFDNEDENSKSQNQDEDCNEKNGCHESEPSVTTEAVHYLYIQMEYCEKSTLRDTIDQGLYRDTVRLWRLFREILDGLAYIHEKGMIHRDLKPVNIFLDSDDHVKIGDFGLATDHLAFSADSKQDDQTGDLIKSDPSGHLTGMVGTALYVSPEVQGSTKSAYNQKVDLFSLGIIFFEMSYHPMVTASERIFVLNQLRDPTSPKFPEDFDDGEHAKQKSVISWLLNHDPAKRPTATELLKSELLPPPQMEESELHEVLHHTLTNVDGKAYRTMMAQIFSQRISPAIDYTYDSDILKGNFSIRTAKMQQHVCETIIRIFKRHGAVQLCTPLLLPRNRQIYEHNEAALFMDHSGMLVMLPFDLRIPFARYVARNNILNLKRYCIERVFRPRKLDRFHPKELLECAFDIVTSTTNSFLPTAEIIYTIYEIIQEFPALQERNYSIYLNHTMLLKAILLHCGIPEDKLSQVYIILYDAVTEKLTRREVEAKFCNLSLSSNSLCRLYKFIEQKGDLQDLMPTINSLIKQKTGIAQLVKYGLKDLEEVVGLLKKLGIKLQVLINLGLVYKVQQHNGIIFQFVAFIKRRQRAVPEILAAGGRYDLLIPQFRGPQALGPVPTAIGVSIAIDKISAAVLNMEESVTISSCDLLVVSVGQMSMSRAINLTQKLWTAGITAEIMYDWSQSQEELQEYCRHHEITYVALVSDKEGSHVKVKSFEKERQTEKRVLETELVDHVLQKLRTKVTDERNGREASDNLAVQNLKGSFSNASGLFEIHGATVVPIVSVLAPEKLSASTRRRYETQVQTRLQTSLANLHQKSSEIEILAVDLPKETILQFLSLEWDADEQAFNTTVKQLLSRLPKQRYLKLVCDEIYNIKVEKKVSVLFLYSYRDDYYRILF
Sequence of intracellular GCN2 (phosphorylation of the GCN2 substrate eIF2α) (Q9P2K8 whole entry): as above

SMILES	IC50 [1] [nM]	Ki [2] [nM]
CS(=O)(=O)N1CCC12CCCN(c1cc(-c3cnc4ccc(C(F)F)nn34)ncn1)C2 (stereo not drawn) [II-70, 6-(Difluoromethyl)-3-(6-(1-(methylsulfonyl)-1,6-diazaspiro[3.5]nonan-6-yl)pyrimidin-4-yl)imidazo[1,2-b]pyridazine]	> 5000	10 to 1000
CNc1cc(-c2cnc3ccc(C(F)F)nn23)cc(N2CCC(F)(F)C(CNS(C)(=O)=O)C2)n1 (stereo not drawn) [II-71, N-((1-(4-(6-(Difluoromethyl)imidazo[1,2-b]pyridazin-3-yl)-6-(methylamino)pyridin-2-yl)-4,4-difluoropiperidin-3-yl)methyl)methanesulfonamide]	500 to 5000	< 10
CN1CC2(C1)CN(c1cc(-c3cnc4ccc(C(F)F)nn34)cc(N3CCCC(CNS(C)(=O)=O)C3)n1)C2 (stereo not drawn) [II-72, N-((1-(4-(6-(Difluoromethyl)imidazo[1,2-b]pyridazin-3-yl)-6-(6-methyl-2,6-diazaspiro[3.3]heptan-2-yl)pyridin-2-yl)piperidin-3-yl)methyl)methanesulfonamide]	< 500	< 10
CS(=O)(=O)NCC1CCCN(c2cc(-c3cnc4ccc(C(F)F)nn34)cnc2CN)C1 (stereo not drawn) [II-73, N-((1-(2-(Aminomethyl)-5-(6-(difluoromethyl)imidazo[1,2-b]pyridazin-3-yl)pyridin-3-yl)piperidin-3-yl)methyl)methanesulfonamide]	> 5000	10 to 1000
CNCCOc1cc(-c2cnc3ccc(C(F)F)nn23)cc(N2CCCC(CNS(C)(=O)=O)C2)n1 (stereo not drawn) [II-74, N-((1-(4-(6-(Difluoromethyl)imidazo[1,2-b]pyridazin-3-yl)-6-(2-(methylamino)ethoxy)pyridin-2-yl)piperidin-3-yl)methyl)methanesulfonamide]	500 to 5000	< 10
CC1CN(c2ccnc(-c3cnc4ccc(C(F)F)nn34)c2)CC(CNS(C)(=O)=O)C1(F)F (stereo not drawn) [II-75, N-((1-(2-(6-(Difluoromethyl)imidazo[1,2-b]pyridazin-3-yl)pyridin-4-yl)-4,4-difluoro-5-methylpiperidin-3-yl)methyl)methanesulfonamide]	< 500	< 10
FC(F)c1ccc2ncc(-c3ccnc(N4CCOCC4)c3)n2n1 [II-76, 4-(4-(6-(Difluoromethyl)imidazo[1,2-b]pyridazin-3-yl)pyridin-2-yl)morpholine]	> 5000	10 to 1000
O=S1(=O)CCN(c2cc(-c3cnc4ccc(C(F)F)nn34)ccn2)CC1 [II-77, 4-(4-(6-(Difluoromethyl)imidazo[1,2-b]pyridazin-3-yl)pyridin-2-yl)thiomorpholine 1,1-dioxide]	> 5000	10 to 1000
CC1CN(c2cc(-c3cnc4ccc(C(F)F)nn34)ccn2)CC(CNS(C)(=O)=O)C1(F)F (stereo not drawn) [II-78, N-((1-(4-(6-(Difluoromethyl)imidazo[1,2-b]pyridazin-3-yl)pyridin-2-yl)-4,4-difluoro-5-methylpiperidin-3-yl)methyl)methanesulfonamide]	< 500	< 10
FC(F)c1ccc2ncc(-c3ccnc(N4CC5(CNC5)C4)c3)n2n1 [II-79, 3-(2-(2,6-Diazaspiro[3.3]heptan-2-yl)pyridin-4-yl)-6-(difluoromethyl)imidazo[1,2-b]pyridazine]	> 5000	10 to 1000
CS(=O)(=O)NCC1CCCN(c2cc(-c3cnc4ccc(C(F)F)nn34)cc(CN)n2)C1 (stereo not drawn) [II-80, N-((1-(6-(Aminomethyl)-4-(6-(difluoromethyl)imidazo[1,2-b]pyridazin-3-yl)pyridin-2-yl)piperidin-3-yl)methyl)methanesulfonamide]	500 to 5000	< 10
CS(=O)(=O)NCC1CN(c2cc(-c3cnc4ccc(C(F)F)nn34)ccn2)CCN1C1COC1 (stereo not drawn) [II-81, N-((4-(4-(6-(Difluoromethyl)imidazo[1,2-b]pyridazin-3-yl)pyridin-2-yl)-1-(oxetan-3-yl)piperazin-2-yl)methyl)methanesulfonamide]	> 5000	10 to 1000
